Reference: patent US12410185B2, “Compounds targeting mutant calreticulin” (MYELOPRO DIAGNOSTICS AND RESEARCH GmbH, priority 2018, dated 2025)
Where two headings read alike, the source gives them in different places.

How the values were obtained:
CALR wild-type cell line = experiment: 72 h dose response of hematoxylin, analogues and control compounds; assay type: cell-based; settings: 72 h assay
Description: (§1) Ba/F3 and UT-7-TPO were plated 5.000 cells/well and 16.000 cells/well into 96-well plates with the desirable concentrations of compounds or cytokines added to a total volume of 100 ul. 72 hours later, the CellTiter-Glo luminescent Cell Viability Assay (Promega) was used to determine the cell viability. The luminescent signal was detected by a VICTOR Multilabel Plate Reader (PerkinElmer). Dose response data was analyzed by Graphpad Prism 7.0.
(§2) To further explore the chemical space of the compound, a few hematoxylin analogues were also tested (FIGS. 15 to 17). […] The compounds Protosappanin B (A-4) and RJ002 (B-2) were also tested. […] As a comparison, the clinically used chemotherapeutic drugs hydroxyurea and ruxolitinib were also tested in the cell models.

CALR mutant cell lines = experiment: cells; settings: for IC50: read-out: IC50 in mutant cell lines
Description: as §1, §2

[1] = solubility in 10 mM stock solution; assay type: physicochemical; settings: compounds dissolved in DMSO
Description: All tested compounds were dissolved in DMSO.
(§3) These included HEM8 (B-18), HEM11 (B-19), HEM30 (B-20), HEM36 (B-26), HEM44 (B-34) and HEM46 (B-36) which were used at 1/10 of the concentration (1 uM for Ba/F3 and 3 uM for UT-7).

Ba/F3 cells = experiment: cytotoxicity screen of further hematoxylin derivatives; assay type: cell-based, mouse; settings: 10 uM (1 uM for compounds insoluble in 10 mM stock)
Description: (§4) Cytotoxicity screens were performed essentially as described in Example 1.
as §3

[2] = test system: mutant cell line (UT-7 cells); experiment: IC50 of further hematoxylin derivatives (Table 3); assay type: cell-based; settings: Homo sapiens
Description: as §4

[3] = test system: WT cell line (UT-7 cells); experiment: IC50 of further hematoxylin derivatives (Table 3); assay type: cell-based; settings: Homo sapiens
Description: as §4

UT-7 cells = experiment: cytotoxicity screen of further hematoxylin derivatives; assay type: cell-based; settings: 30 uM (3 uM for compounds insoluble in 10 mM stock)
Description: as §4, §3

[4] = UT7, UT-7 cells, read-out: IC50 mutant cell line
[5] = UT7, UT-7 cells, read-out: IC50 WT cell line

In the case of `Oc1ccc2c(c1)OC[C@]1(O)Cc3cc(O)c(O)cc3[C@H]21` [Brazilin (A-2), Brazilin], the IC50 (CALR wild-type cell line; read-out: IC50 in wild-type cell line) is reported as 6.2 µM, the “cytotoxic selectivity for mutant vs wild-type cell lines” value (shortened to “cytotoxic selectivity for mutant”) (CALR mutant cell lines) is reported as “comparable cytotoxic selectivity” and the IC50 (CALR mutant cell lines; 72 h) is reported as 1.9 µM.

In the case of `O=C(Oc1cc2c(cc1OC(=O)c1cccc(N3C(=O)/C(=C/c4cccc(F)c4)SC3=S)c1)[C@@H]1c3ccc(OC(=O)c4cccc(N5C(=O)/C(=C/c6cccc(F)c6)SC5=S)c4)c(OC(=O)c4cccc(N5C(=O)/C(=C/c6cccc(F)c6)SC5=S)c4)c3OC[C@]1(O)C2)c1cccc(N2C(=O)/C(=C/c3cccc(F)c3)SC2=S)c1` [HEM8 (B-18)], the “solubility in a 10 mM stock solution” value [1] is reported as “insoluble in a 10 mM stock solution”.

For `O=C(CCN1C(=O)/C(=C/c2ccc(Cl)cc2)SC1=S)Oc1cc2c(cc1OC(=O)CCN1C(=O)/C(=C/c3ccc(Cl)cc3)SC1=S)[C@@H]1c3ccc(OC(=O)CCN4C(=O)/C(=C/c5ccc(Cl)cc5)SC4=S)c(OC(=O)CCN4C(=O)/C(=C/c5ccc(Cl)cc5)SC4=S)c3OC[C@]1(O)C2` [HEM11 (B-19)], the “solubility in a 10 mM stock solution” value [1] was “insoluble in a 10 mM stock solution”.

With `O=C(Oc1cc2c(cc1OC(=O)c1ccc(/C=C3\SC(=S)N(c4ccc(F)cc4)C3=O)cc1)[C@@H]1c3ccc(OC(=O)c4ccc(/C=C5\SC(=S)N(c6ccc(F)cc6)C5=O)cc4)c(OC(=O)c4ccc(/C=C5\SC(=S)N(c6ccc(F)cc6)C5=O)cc4)c3OC[C@]1(O)C2)c1ccc(/C=C2\SC(=S)N(c3ccc(F)cc3)C2=O)cc1` [HEM30 (B-20)] the “selectivity and potency in cytotoxicity screen” value (shortened to “selectivity and potency”) (Ba/F3 cells) was “Best results in terms of selectivity and potency” and the “solubility in a 10 mM stock solution” value [1] was “insoluble in a 10 mM stock solution”.

For `CN1C(=O)/C(=C/c2ccc(C(=O)Oc3cc4c(cc3OC(=O)c3ccc(/C=C5\SC(=S)N(C)C5=O)cc3)[C@@H]3c5ccc(OC(=O)c6ccc(/C=C7\SC(=S)N(C)C7=O)cc6)c(OC(=O)c6ccc(/C=C7\SC(=S)N(C)C7=O)cc6)c5OC[C@]3(O)C4)cc2)SC1=S` [HEM32 (B-22)], the IC50 [2, 4] was 16.1 µM, the IC50 [3, 5] was 18.8 µM and the “selectivity and potency” value (UT-7 cells) was “Best results in terms of selectivity and potency”.

With `O=C(Oc1cc2c(cc1OC(=O)c1ccc(Cl)cc1)[C@@H]1c3ccc(OC(=O)c4ccc(Cl)cc4)c(OC(=O)c4ccc(Cl)cc4)c3OC[C@]1(OC(=O)c1ccc(Cl)cc1)C2)c1ccc(Cl)cc1` [HEM36 (B-26)] the “solubility in a 10 mM stock solution” value [1] was “insoluble in a 10 mM stock solution”.

In the case of `CC(C)C(=O)Oc1cc2c(cc1OC(=O)C(C)C)[C@@H]1c3ccc(OC(=O)C(C)C)c(OC(=O)C(C)C)c3OC[C@]1(O)C2` [HEM40 (B-30)], the IC50 [2, 4] is reported as 12 µM, the IC50 [3, 5] is reported as 14.5 µM and the “selectivity and potency” value (UT-7 cells) is reported as “Best results in terms of selectivity and potency”.

For `CCC(=O)Oc1cc2c(cc1OC(=O)CC)[C@@H]1c3ccc(OC(=O)CC)c(OC(=O)CC)c3OC[C@]1(O)C2` [HEM42 (B-32)], the IC50 [2, 4] was 20.8 µM, the IC50 [3, 5] was 26.2 µM and the “selectivity and potency” value (UT-7 cells) was “Best results in terms of selectivity and potency”.

In the case of `O=C(Oc1cc2c(cc1OC(=O)C(Cl)Cl)[C@@H]1c3ccc(OC(=O)C(Cl)Cl)c(OC(=O)C(Cl)Cl)c3OC[C@]1(O)C2)C(Cl)Cl` [HEM44 (B-34)], the “solubility in a 10 mM stock solution” value [1] is reported as “insoluble in a 10 mM stock solution”.

With `CC(C)CC(=O)Oc1cc2c(cc1OC(=O)CC(C)C)[C@@H]1c3ccc(OC(=O)CC(C)C)c(OC(=O)CC(C)C)c3OC[C@]1(O)C2` [HEM46 (B-36)] the “solubility in a 10 mM stock solution” value [1] was “insoluble in a 10 mM stock solution”.

With `CCCC(=O)Oc1cc2c(cc1OC(=O)CCC)[C@@H]1c3ccc(OC(=O)CCC)c(OC(=O)CCC)c3OC[C@]1(O)C2` [HEM47 (B-37)] the IC50 ([2]; UT7, read-out: IC50 mutant cell line) was 12.4 µM, the IC50 ([3]; UT7, read-out: IC50 WT cell line) was 14.7 µM and the “selectivity and potency” value (UT-7 cells) was “Best results in terms of selectivity and potency”.

For `CC(C)(C)C(=O)Oc1cc2c(cc1OC(=O)C(C)(C)C)[C@@H]1c3ccc(OC(=O)C(C)(C)C)c(OC(=O)C(C)(C)C)c3OC[C@]1(O)C2` [HEM48 (B-38)], the “selectivity and potency” value (Ba/F3 cells) was “Best results in terms of selectivity and potency”.

With `NC(=O)NO` [Hydroxyurea, reference compound] the “cytotoxic selectivity for mutant” value (CALR mutant cell lines) was “did not show any selective killing effect”.

In the case of `CC(=O)Oc1cc2c(cc1OC(C)=O)[C@@H]1c3ccc(OC(C)=O)c(OC(C)=O)c3OC[C@]1(OC(C)=O)C2` [L-HEM1 (B-1)], the “cytotoxic selectivity for mutant” value (CALR mutant cell lines) is reported as “compromise both potency and selectivity”.

In the case of `COc1cc2c(cc1OC)C1c3ccc(OC)c(OC)c3OCC1(O)C2` (centres unmarked) [NSC7251 (A-5)], the “cytotoxic selectivity for mutant” value (CALR mutant cell lines) is reported as “compromise both potency and selectivity”.

In the case of `N#CC[C@H](C1CCCC1)n1cc(-c2ncnc3[nH]ccc23)cn1` [ruxolitinib, Ruxolitinib, reference compound], the IC50 (CALR wild-type cell line; read-out: IC50 in wild-type cells) is reported as 0.4 µM, the “cytotoxic selectivity for mutant” value (CALR mutant cell lines) is reported as “mild selective effect” and the IC50 (CALR mutant cell lines; 72 h) is reported as 0.195 µM. For the same compound, the “IC50 reduction in the mutant cell lines compared to wild-type cells” value (CALR mutant cell lines; 72 h assay) was “about 2 fold”.

In the case of Hematein [Hematein (A-3)], the “cytotoxic selectivity for mutant” value (CALR mutant cell lines) is reported as “retained the cytotoxic selectivity” and the IC50 (CALR mutant cell lines; 72 h assay) is reported as 7.5 µM.
